Measurements taken from patent US20130197032A1, “[…] COMPOUNDS FOR THE TREATMENT OF NEUROLOGICAL AND […] DISORDERS” (A. CARLSSON RESEARCH AB, priority 2010, published 2013).

Key:
human 5-HT1A receptor = biological target: T1, human 5-HT1A receptor (Homo sapiens, UniProt P08908); experiment: R-SAT assay 5-HT1A; type: cell-based; conditions: Table 3, 5-HT1A; percent response of reference 8-OH-DPAT
T1 construct: expressed in transfected cells; host or cells: NIH/3T3

human H1 receptor = biological target: T2, human H1 receptor (Homo sapiens, UniProt P35367); experiment: R-SAT assay H1; type: cell-based; conditions: Table 3, H1; percent response of reference Histamine
T2 construct: expressed in transfected cells; host or cells: NIH/3T3

active rats = experiment: Motor activity in active rats, video tracking; type: in vivo; conditions: 30, 60, 120 μmol/kg sc 30 minutes prior to recording
Procedure: Motor activity experiments in both active and habituated rats were performed on male Sprague-Dawley rats (Charles River, Germany) weighing 280-320 g. Prior to testing, rats were housed in groups of four or five in ventilated Macrolon type IV cages for approximately one week.
The rats were housed in reverse daylight cycle and all handling of the animals was performed in dim light. Test drugs were administered s.c. 30 minutes prior to registration of behavior. Single rats were introduced into rectangular arenas (l/w/h: 150×100×40 cm) illuminated indirectly by one infrared (IR) lamp (Neocom, South Korea). The rats' movements were recorded to digital (MPEG2) video files using an IR sensitive video camera (Panasonic WV-CPR480, lens: Panasonic LA-408C3) connected to a PC equipped with a MPEG-encoder (MVR1000SX, Canopus Co.).
Suspected outliers were evaluated one at the time with Grubbs' test for outliers (Grubbs F E (1969) Procedures for detecting outlying observations in samples. Technometrics 11(1):1-21).
The third series of experiments was performed in drug naive rats (FIG. 8). Rats were injected sc with saline (C, 0.9%) or either test drug 30 minutes prior to video recording. […] Behavior was registered under infrared light in rectangular arenas (150×100×40 cm) by video tracking. Motor activity is shown as velocity. Shown are means and SEM.

human M4 receptor = biological target: T3, human M4 receptor (Homo sapiens, UniProt P08173); experiment: R-SAT assay M4; type: cell-based; conditions: Table 3, M4; percent response of reference Carbachol
T3 construct: expressed in transfected cells; host or cells: NIH/3T3
T3 sequence (P08173 1-479): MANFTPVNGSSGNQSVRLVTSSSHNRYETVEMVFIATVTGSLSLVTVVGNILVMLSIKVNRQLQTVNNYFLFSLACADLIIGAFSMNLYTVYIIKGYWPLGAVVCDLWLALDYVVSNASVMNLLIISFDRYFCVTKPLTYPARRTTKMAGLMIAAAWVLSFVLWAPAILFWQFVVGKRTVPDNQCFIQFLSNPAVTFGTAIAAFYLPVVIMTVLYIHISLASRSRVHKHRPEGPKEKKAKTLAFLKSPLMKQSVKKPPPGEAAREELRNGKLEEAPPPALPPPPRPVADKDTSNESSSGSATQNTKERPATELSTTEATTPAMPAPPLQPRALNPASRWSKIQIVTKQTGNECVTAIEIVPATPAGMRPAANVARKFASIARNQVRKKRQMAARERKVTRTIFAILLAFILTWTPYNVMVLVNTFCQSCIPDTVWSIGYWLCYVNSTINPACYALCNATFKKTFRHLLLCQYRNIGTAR

human alpha1B receptor = biological target: T4, human alpha1B receptor (Homo sapiens, UniProt P35368); experiment: R-SAT assay α1B; type: cell-based; conditions: Table 3, α1B; percent response of reference Phenylephrine
T4 construct: expressed in transfected cells; host or cells: NIH/3T3 cells, transient transfection, pSI vector
T4 sequence (P35368 1-520): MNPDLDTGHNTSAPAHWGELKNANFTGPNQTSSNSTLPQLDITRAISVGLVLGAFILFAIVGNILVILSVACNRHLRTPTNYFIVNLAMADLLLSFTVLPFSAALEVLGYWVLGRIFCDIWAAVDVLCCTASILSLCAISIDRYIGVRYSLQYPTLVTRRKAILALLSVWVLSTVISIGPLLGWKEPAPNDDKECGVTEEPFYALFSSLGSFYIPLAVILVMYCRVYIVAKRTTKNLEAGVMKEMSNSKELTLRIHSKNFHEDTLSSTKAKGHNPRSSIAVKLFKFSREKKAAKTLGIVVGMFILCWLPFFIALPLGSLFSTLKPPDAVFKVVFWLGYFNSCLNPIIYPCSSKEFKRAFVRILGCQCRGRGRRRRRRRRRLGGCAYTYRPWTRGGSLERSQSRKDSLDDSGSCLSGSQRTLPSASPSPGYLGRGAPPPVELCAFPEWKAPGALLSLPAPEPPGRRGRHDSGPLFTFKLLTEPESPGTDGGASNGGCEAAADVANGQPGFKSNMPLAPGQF

5-HT2B receptors = 5-HT2B receptors (Homo sapiens, UniProt P41595); experiment: R-SAT assay 5-HT2B; type: cell-based; set-up: expressed in transfected cells; host or cells: NIH/3T3; conditions: Table 3, 5-HT2B; for EC50: negative logarithm of EC50 in molar, read-out: pEC50 (converted); for Eff (%): percent response of reference 5-CT
human M1 receptor = biological target: T5, human M1 receptor (Homo sapiens, UniProt P11229); experiment: R-SAT assay M1; type: cell-based; conditions: Table 3, M1; percent response of reference Carbachol
T5 construct: expressed in transfected cells; host or cells: NIH/3T3

human alpha2C receptor = biological target: T6, human alpha2C receptor (Homo sapiens, UniProt P18825); experiment: R-SAT assay α2C; type: cell-based; conditions: Table 3, α2C; percent response of reference UK 14,306
T6 construct: expressed in transfected cells; host or cells: NIH/3T3 cells, transient transfection, pSI vector
T6 sequence (P18825 1-462): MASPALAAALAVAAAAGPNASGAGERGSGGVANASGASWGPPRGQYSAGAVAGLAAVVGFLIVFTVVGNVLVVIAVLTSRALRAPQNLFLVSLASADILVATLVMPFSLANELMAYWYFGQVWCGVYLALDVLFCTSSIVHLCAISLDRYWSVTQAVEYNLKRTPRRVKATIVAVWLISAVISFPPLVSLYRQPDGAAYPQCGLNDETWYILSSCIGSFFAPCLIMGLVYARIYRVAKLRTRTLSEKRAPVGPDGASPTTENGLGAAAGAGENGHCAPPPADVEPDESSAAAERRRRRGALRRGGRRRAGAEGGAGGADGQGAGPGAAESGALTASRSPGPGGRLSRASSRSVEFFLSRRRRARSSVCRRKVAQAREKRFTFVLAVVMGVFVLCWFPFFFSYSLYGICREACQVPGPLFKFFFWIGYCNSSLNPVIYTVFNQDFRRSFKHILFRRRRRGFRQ

human 5-HT2A receptors = human 5-HT2A receptors (Homo sapiens, UniProt P28223); experiment: BRET2 beta-arrestin-2 recruitment assay at 5-HT2A; type: cell-based; set-up: expressed in transfected cells; host or cells: HEK-293T; conditions: mean ± SEM; for EC50: negative logarithm of EC50 in molar (M), HEK 293T cells, read-out: BRET2 pEC50 (converted); for BRET2 Eff %: percent response of reference ligand 5-HT
Sequence of human 5-HT2A receptors (P28223 whole entry): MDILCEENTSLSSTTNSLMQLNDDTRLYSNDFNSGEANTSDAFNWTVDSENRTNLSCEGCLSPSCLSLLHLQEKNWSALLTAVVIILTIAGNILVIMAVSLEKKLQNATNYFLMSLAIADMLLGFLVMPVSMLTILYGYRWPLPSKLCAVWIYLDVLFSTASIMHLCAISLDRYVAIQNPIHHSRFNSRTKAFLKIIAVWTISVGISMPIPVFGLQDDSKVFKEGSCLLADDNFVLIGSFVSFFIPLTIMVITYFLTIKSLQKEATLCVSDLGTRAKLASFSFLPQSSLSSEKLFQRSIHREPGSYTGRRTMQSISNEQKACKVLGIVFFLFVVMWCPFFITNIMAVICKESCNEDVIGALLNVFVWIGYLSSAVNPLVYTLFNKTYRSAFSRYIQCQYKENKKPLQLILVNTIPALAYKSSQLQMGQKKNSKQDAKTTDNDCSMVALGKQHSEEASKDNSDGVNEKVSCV
Procedure: BRET-2 signals were measured using the multiplate reader Mithras 940LB (Berthold Technologies, Bad Wildbad, Germany) and were calculated as the ratio between the Renilla luciferase emission and the GFP2 emission corrected by the background emissions of non-transfected cells.

Sequence of 5-HT2B receptors (P41595 whole entry): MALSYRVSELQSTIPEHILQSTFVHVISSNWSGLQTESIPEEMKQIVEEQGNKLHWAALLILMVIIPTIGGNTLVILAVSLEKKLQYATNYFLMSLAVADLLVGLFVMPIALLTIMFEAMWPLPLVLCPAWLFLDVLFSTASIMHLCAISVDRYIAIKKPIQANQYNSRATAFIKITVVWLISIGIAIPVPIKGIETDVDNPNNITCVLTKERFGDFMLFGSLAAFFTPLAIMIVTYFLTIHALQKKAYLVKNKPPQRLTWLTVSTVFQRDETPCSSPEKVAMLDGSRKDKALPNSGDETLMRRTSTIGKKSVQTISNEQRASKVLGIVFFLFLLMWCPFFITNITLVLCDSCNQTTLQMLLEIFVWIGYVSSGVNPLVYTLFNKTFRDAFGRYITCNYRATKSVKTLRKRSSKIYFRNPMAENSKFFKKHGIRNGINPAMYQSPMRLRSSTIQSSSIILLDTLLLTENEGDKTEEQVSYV
T2 sequence (P35367 whole entry): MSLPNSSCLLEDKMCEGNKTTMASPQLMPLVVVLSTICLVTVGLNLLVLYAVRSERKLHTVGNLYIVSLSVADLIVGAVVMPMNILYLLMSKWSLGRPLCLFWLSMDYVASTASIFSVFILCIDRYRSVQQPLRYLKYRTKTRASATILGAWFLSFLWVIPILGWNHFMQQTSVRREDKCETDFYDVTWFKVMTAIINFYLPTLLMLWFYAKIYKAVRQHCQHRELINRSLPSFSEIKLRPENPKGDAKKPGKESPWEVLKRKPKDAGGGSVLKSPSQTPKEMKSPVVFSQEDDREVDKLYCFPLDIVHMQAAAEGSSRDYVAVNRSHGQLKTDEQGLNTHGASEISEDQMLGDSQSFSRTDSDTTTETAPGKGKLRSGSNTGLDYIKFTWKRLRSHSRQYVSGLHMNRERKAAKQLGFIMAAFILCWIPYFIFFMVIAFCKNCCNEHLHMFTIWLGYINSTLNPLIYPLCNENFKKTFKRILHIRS
T5 sequence (P11229 whole entry): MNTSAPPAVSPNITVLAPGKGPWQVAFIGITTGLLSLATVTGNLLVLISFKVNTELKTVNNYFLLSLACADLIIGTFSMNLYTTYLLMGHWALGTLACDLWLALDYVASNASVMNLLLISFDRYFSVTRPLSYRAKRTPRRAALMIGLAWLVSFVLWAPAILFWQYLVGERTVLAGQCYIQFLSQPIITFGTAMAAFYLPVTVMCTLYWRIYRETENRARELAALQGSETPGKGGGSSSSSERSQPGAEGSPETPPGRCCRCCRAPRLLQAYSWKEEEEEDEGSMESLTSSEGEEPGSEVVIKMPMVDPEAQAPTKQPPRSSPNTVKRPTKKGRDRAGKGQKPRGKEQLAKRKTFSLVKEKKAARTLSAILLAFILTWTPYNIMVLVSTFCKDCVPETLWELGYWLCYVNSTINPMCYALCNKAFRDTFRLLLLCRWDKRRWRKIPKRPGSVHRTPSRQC
T1 sequence (P08908 whole entry): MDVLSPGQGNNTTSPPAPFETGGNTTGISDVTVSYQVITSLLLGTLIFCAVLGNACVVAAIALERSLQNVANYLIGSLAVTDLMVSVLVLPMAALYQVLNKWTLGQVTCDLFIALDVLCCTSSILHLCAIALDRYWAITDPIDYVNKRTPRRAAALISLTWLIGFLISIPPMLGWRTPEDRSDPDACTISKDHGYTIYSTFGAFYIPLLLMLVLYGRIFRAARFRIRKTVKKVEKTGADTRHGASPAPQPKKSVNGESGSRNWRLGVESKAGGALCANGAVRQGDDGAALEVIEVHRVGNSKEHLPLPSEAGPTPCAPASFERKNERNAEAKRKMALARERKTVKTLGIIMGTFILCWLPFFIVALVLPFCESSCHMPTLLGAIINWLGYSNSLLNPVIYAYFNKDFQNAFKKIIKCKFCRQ

Compound: CCCN1CCC[C@@H](c2cccc(S(C)(=O)=O)c2)C1 [(−)-OSU6162, (3S)-3-[3-(methylsulfonyl)phenyl]-1-propylpiperidine]
- Eff (%) (human 5-HT1A receptor): 14%
- Eff (%) (human H1 receptor): 2%
- motor activity (velocity) in active rats (active rats): decreased motor activity in active rats
- Eff (%) (human M4 receptor): 2%
- Eff (%) (human alpha1B receptor): −1%
- EC50 (5-HT2B receptors): 0.631 µM
- Eff (%) (5-HT2B receptors): 75%
- Eff (%) (human M1 receptor): 5%
- Eff (%) (human alpha2C receptor): 6%
- EC50 (human 5-HT2A receptors): 1e-05 M
- BRET2 Eff % (human 5-HT2A receptors; listed as (−) OSU-6162): approximately 60%
- BRET2 Eff % (human 5-HT2A receptors; listed as (−)-OSU-6162): 63 ± 2%

Compound: CCCN1CCC[C@H](c2cccc(S(C)(=O)=O)c2)C1 [(+)-OSU6162, (3R)-3-[3-(methylsulfonyl)phenyl]-1-propylpiperidine]
- Eff (%) (human 5-HT1A receptor): 24%
- Eff (%) (human H1 receptor): 3%
- motor activity (velocity) in active rats (active rats): decreased motor activity in active rats
- Eff (%) (human M4 receptor): 4%
- Eff (%) (human alpha1B receptor): 10%
- EC50 (5-HT2B receptors): 5.01 µM
- Eff (%) (5-HT2B receptors): 111%
- Eff (%) (human M1 receptor): 11%
- Eff (%) (human alpha2C receptor): 13%
- EC50 (human 5-HT2A receptors): 1.58e-05 M
- BRET2 Eff % (human 5-HT2A receptors; listed as (+) OSU-6162): ~80%
- BRET2 Eff % (human 5-HT2A receptors; listed as (+)-OSU-6162): 84 ± 2%
